PubChem BioAssay (NCI)
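A five-concentration, 48-hour dose response in 96-well plates underlies each endpoint, interpolated linearly between surrounding concentrations. Definition used: TGI = concentration required for complete inhibition of growth.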

Tests used:
Assay in all cases: growth of human tumour cells (NCI), 48 h
NCI-H23 lung = tested on: NCI-H23 lung
MALME-3M melanoma = tested on: MALME-3M melanoma
LOX IMVI melanoma = tested on: LOX IMVI melanoma
HOP-62 NSCLC = tested on: HOP-62 NSCLC
SF-539 CNS = tested on: SF-539 CNS
OVCAR-5 ovarian = tested on: OVCAR-5 ovarian
OVCAR-4 ovarian = tested on: OVCAR-4 ovarian
UO-31 renal = tested on: UO-31 renal
EKVX NSCLC = tested on: EKVX NSCLC
T-47D breast = tested on: T-47D breast
M14 melanoma = tested on: M14 melanoma
OVCAR-8 ovarian = tested on: OVCAR-8 ovarian
CAKI-1 renal = tested on: CAKI-1 renal
DU-145 prostate = tested on: DU-145 prostate
MDA-MB-231 breast = tested on: MDA-MB-231 breast
TK-10 renal = tested on: TK-10 renal
SNB-75 CNS = tested on: SNB-75 CNS
CCRF-CEM leukemia = tested on: CCRF-CEM leukemia
SW-620 colon = tested on: SW-620 colon
NCI-H226 lung = tested on: NCI-H226 lung
786-0 renal = tested on: 786-0 renal
KM12 colon = tested on: KM12 colon
U251 CNS = tested on: U251 CNS
SR leukemia = tested on: SR leukemia
MOLT-4 leukemia = tested on: MOLT-4 leukemia
COLO 205 colon = tested on: COLO 205 colon
PC-3 prostate = tested on: PC-3 prostate
SK-OV-3 ovarian = tested on: SK-OV-3 ovarian
HL-60(TB) leukemia = tested on: HL-60(TB) leukemia
OVCAR-3 ovarian = tested on: OVCAR-3 ovarian
MDA-N = tested on: MDA-N
SK-MEL-28 melanoma = tested on: SK-MEL-28 melanoma
NCI/ADR-RES ovarian = tested on: NCI/ADR-RES ovarian
IGROV1 ovarian = tested on: IGROV1 ovarian
UACC-62 melanoma = tested on: UACC-62 melanoma
SK-MEL-5 melanoma = tested on: SK-MEL-5 melanoma
SF-295 CNS = tested on: SF-295 CNS
HCT-116 colon = tested on: HCT-116 colon
HT29 colon = tested on: HT29 colon
HCC-2998 colon = tested on: HCC-2998 colon
SNB-19 CNS = tested on: SNB-19 CNS
MCF7 breast = tested on: MCF7 breast
BT-549 breast = tested on: BT-549 breast
SF-268 CNS = tested on: SF-268 CNS
SK-MEL-2 melanoma = tested on: SK-MEL-2 melanoma
ACHN renal = tested on: ACHN renal
SN12C renal = tested on: SN12C renal
UACC-257 melanoma = tested on: UACC-257 melanoma
HCT-15 colon = tested on: HCT-15 colon
A549 NSCLC = tested on: A549 NSCLC
HS 578T breast = tested on: HS 578T breast
NCI-H522 lung = tested on: NCI-H522 lung
RPMI-8226 leukemia = tested on: RPMI-8226 leukemia
MDA-MB-435 = tested on: MDA-MB-435
NCI-H460 lung = tested on: NCI-H460 lung
A498 renal = tested on: A498 renal

Measured: TGI

O=C1NCc2ccccc2S(=O)(=O)n2cccc21
> 100 µM: NCI-H23 lung | MALME-3M melanoma | LOX IMVI melanoma | HOP-62 NSCLC | SF-539 CNS | OVCAR-5 ovarian | OVCAR-4 ovarian | UO-31 renal | EKVX NSCLC | T-47D breast | M14 melanoma | OVCAR-8 ovarian | CAKI-1 renal | DU-145 prostate | MDA-MB-231 breast | TK-10 renal | SNB-75 CNS | CCRF-CEM leukemia | SW-620 colon | NCI-H226 lung | 786-0 renal | KM12 colon | U251 CNS | SR leukemia | MOLT-4 leukemia | COLO 205 colon | PC-3 prostate | SK-OV-3 ovarian | HL-60(TB) leukemia | OVCAR-3 ovarian | MDA-N | SK-MEL-28 melanoma | NCI/ADR-RES ovarian | IGROV1 ovarian | UACC-62 melanoma | SK-MEL-5 melanoma | SF-295 CNS | HCT-116 colon | HT29 colon | HCC-2998 colon | SNB-19 CNS | MCF7 breast | BT-549 breast | SF-268 CNS | SK-MEL-2 melanoma | ACHN renal | SN12C renal | UACC-257 melanoma | HCT-15 colon | A549 NSCLC | HS 578T breast | NCI-H522 lung | RPMI-8226 leukemia | MDA-MB-435 | NCI-H460 lung

Cc1nn(C(=O)Cc2ccccc2)c2c1C(c1ccc(O)cc1O)SC(N)=N2 (stereo not given)
> 100 µM: NCI-H23 lung | MALME-3M melanoma | LOX IMVI melanoma | HOP-62 NSCLC | SF-539 CNS | UO-31 renal | EKVX NSCLC | T-47D breast | M14 melanoma | OVCAR-8 ovarian | CAKI-1 renal | DU-145 prostate | MDA-MB-231 breast | TK-10 renal | SNB-75 CNS | CCRF-CEM leukemia | A498 renal | SW-620 colon | NCI-H226 lung | 786-0 renal | KM12 colon | SR leukemia | MOLT-4 leukemia | COLO 205 colon | PC-3 prostate | SK-OV-3 ovarian | HL-60(TB) leukemia | MDA-N | SK-MEL-28 melanoma | IGROV1 ovarian | UACC-62 melanoma | SK-MEL-5 melanoma | SF-295 CNS | HCT-116 colon | HT29 colon | HCC-2998 colon | SNB-19 CNS | MCF7 breast | BT-549 breast | SF-268 CNS | ACHN renal | SN12C renal | UACC-257 melanoma | HCT-15 colon | A549 NSCLC | HS 578T breast | NCI-H522 lung | RPMI-8226 leukemia | MDA-MB-435 | NCI-H460 lung
